Assay results as given in patent US20110039847A1, “AMIDE DERIVATIVES AS SIRTUIN MODULATORS” (Sirtris Pharmaceuticals, Inc, priority 2007, published 2011).
Structures can show the parent of a compound that is named as a salt.

Biological target: T1, SIRT1 (Homo sapiens, UniProt Q96EB6)
T1 sequence (Q96EB6 1-747): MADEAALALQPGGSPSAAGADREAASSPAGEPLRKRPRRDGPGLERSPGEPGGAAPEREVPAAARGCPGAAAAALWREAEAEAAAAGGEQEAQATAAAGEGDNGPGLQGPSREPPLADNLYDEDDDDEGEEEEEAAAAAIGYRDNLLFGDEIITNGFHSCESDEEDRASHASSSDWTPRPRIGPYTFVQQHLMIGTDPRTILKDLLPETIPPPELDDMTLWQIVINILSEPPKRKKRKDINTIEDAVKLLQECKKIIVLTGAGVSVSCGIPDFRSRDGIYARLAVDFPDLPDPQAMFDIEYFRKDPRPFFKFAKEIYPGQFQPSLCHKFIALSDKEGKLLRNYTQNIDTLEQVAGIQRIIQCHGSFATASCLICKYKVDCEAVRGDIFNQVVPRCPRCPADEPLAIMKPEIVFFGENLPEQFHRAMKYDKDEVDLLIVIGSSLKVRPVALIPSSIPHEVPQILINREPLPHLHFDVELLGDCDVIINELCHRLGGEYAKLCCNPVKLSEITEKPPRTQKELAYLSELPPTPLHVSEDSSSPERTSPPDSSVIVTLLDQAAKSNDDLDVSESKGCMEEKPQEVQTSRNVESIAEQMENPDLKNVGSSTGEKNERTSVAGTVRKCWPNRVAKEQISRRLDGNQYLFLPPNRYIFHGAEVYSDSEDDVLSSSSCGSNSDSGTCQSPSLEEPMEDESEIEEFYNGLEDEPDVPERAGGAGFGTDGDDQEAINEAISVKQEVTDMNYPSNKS
Test: Mass spectrometry based SIRT1 deacetylation (activation) assay
Assay type: biochemical
Conditions: 0.5 μM peptide substrate, 120 μM βNAD+, 10 nM SIRT1, 25 min at 25° C.; for Emax: 25 min, read-out: % Fold Act. (percent maximum fold activation)
From the text: A mass spectrometry based assay was used to identify modulators of SIRT1 activity. The mass spectrometry based assay utilizes a peptide having 20 amino acid residues as follows: Ac-EE-K(biotin)-GQSTSSHSK(Ac)NleSTEG-K(5TMR)-EE-NH2 (SEQ ID NO: 1) wherein K(Ac) is an acetylated lysine residue and Nle is a norleucine. The peptide is labeled with the fluorophore 5TMR (excitation 540 nm/emission 580 nm) at the C-terminus. The sequence of the peptide substrate is based on p53 with several modifications. In addition, the methionine residue naturally present in the sequence was replaced with the norleucine because the methionine may be susceptible to oxidation during synthesis and purification.
The mass spectrometry assay is conducted as follows: 0.5 μM peptide substrate and 120 μM βNAD^+ is incubated with 10 nM SIRT1 for 25 minutes at 25° C. in a reaction buffer (50 mM Tris-acetate pH 8, 137 mM NaCl, 2.7 mM KCl, 1 mM MgCl2, 5 mM DTT, 0.05% BSA). Test compounds may be added to the reaction as described above. […] After the 25 minute incubation with SIRT1, 10 μL of 10% formic acid is added to stop the reaction. Reactions are sealed and frozen for later mass spec analysis. Determination of the mass of the substrate peptide allows for precise determination of the degree of acetylation (i.e. starting material) as compared to deacetylated peptide (product).
A control for inhibition of sirtuin activity is conducted by adding 1 μL of 500 mM nicotinamide as a negative control at the start of the reaction (e.g., permits determination of maximum sirtuin inhibition). A control for activation of sirtuin activity is conducted using 10 nM of sirtuin protein, with 1 μL of DMSO in place of compound, to determine the amount of deacetylation of the substrate at a given timepoint within the linear range of the assay. This timepoint is the same as that used for test compounds and, within the linear range, the endpoint represents a change in velocity.
For the above assay, SIRT1 protein was expressed and purified as follows. […] The protein was expressed by induction with 1 mM IPTG as an N-terminal His-tag fusion protein at 18° C. overnight and harvested at 30,000×g. Cells were lysed with lysozyme in lysis buffer (50 mM Tris-HCl, 2 mM Tris[2-carboxyethyl]phosphine (TCEP), 10 μM ZnCl2, 200 mM NaCl) and further treated with sonication for 10 min for complete lysis. The protein was purified over a Ni-NTA column (Amersham) and fractions containing pure protein were pooled, concentrated and run over a sizing column (Sephadex S200 26/60 global). The peak containing soluble protein was collected and run on an Ion-exchange column (MonoQ). Gradient elution (200 mM-500 mM NaCl) yielded pure protein. This protein was concentrated and dialyzed against dialysis buffer (20 mM Tris-HCl, 2 mM TCEP) overnight. The protein was aliquoted and frozen at −80° C. until further use.

Row | Structure (SMILES) | EC1.5 | Emax [%]
1 | CN(C)CCNc1cc(C(=O)Nc2ccccc2-c2nccs2)nc(-c2ccccc2)n1 [Compound 8] | A (EC1.5≦1 uM) | ≥ 300
2 | CCN(CCN(C)C)c1cc(C(=O)Nc2ccccc2C(=O)NC2CCCNC2)nc(-c2ccccc2)n1 (centres unmarked) [Compound 174, 6-((2-(dimethylamino)ethyl)(ethyl)amino)-2-phenyl-N-(2-(piperidin-3-ylcarbamoyl)phenyl)pyrimidine-4-carboxamide] | B (EC1.5>1 and ≦10 uM) | ≥ 300
3 | CCCCc1nnc(-c2ccccc2NC(=O)c2cc(NCCN(C)C)nc(-c3ccccc3)n2)s1 [Compound 61] | B (EC1.5>1 and ≦10 uM) | < 150
4 | CCC(=O)c1ccccc1NC(=O)c1cc(NCCN(C)C)nc(-c2ccccc2)n1 [Compound 126] | B (EC1.5>1 and ≦10 uM) | 150 to 300
5 | O=C(Nc1ccccc1-c1ncc(-c2ccccc2)s1)c1cc(NCCN2CCCC2)nc(-c2ccccc2)n1 [Compound 19] | A (EC1.5≦1 uM) | 150 to 300
6 | CCN(CCN(C)C)c1cc(C(=O)Nc2ccccc2-c2nncs2)nc(-c2ccccc2)n1 [Compound 41] | A (EC1.5≦1 uM) | ≥ 300
7 | CC(=O)c1ccccc1NC(=O)c1cc(N2CCOCC2)nc(-c2ccccc2)n1 [Compound 134] | A (EC1.5≦1 uM) | 150 to 300
8 | Cc1cccc(NC(=O)c2ccccc2NC(=O)c2cc(NCCN(C)C)nc(-c3ccccc3)n2)c1 [Compound 146, 6-(2-(dimethylamino)ethylamino)-2-phenyl-N-(2-(m-tolylcarbamoyl)phenyl)pyrimidine-4-carboxamide] | B (EC1.5>1 and ≦10 uM) | ≥ 300
9 | CN(C)CCNc1cc(C(=O)Nc2ccccc2-c2ccncc2)nc(-c2ccccc2)n1 [Compound 10] | B (EC1.5>1 and ≦10 uM) | 150 to 300
10 | CCN(CCN(C)C)c1cc(C(=O)Nc2ccccc2C(=O)c2nccs2)nc(-c2ccccc2)n1 [Compound 177] | A (EC1.5≦1 uM) | ≥ 300
11 | CCc1ccccc1NC(=O)c1cc(NCCN(C)C)nc(-c2ccccc2)n1 [Compound 1] | C (EC1.5>10 uM) | 150 to 300
12 | CCN(CCN(C)C)c1cc(C(=O)Nc2ccccc2-c2nnc(C3CCOCC3)s2)nc(-c2ccccc2)n1 [Compound 93, 6-((2-(dimethylamino)ethyl)(ethyl)amino)-2-phenyl-N-(2-(5-(tetrahydro-2H-pyran-4-yl)-1,3,4-thiadiazol-2-yl)phenyl)pyrimidine-4-carboxamide hydrochloride] | A (EC1.5≦1 uM) | ≥ 300
13 | CSCCNC(=O)c1ccccc1NC(=O)c1cc(NCCN(C)C)nc(-c2ccccc2)n1 [Compound 148, 6-(2-(dimethylamino)ethylamino)-N-(2-(2-(methylthio)ethylcarbamoyl)phenyl)-2-phenylpyrimidine-4-carboxamide] | B (EC1.5>1 and ≦10 uM) | ≥ 300
14 | CNC(=O)c1ccccc1NC(=O)c1cc(NCCN(C)C)nc(-c2ccccc2)n1 [Compound 125, 6-(2-(dimethylamino)ethylamino)-N-(2-(methylcarbamoyl)phenyl)-2-phenylpyrimidine-4-carboxamide] | B (EC1.5>1 and ≦10 uM) | ≥ 300

Next, values leading:

Row | EC1.5 | Emax [%] | Structure (SMILES)
15 | B (EC1.5>1 and ≦10 uM) | 150 to 300 | CN(C)CCNc1cc(C(=O)Nc2ccccc2C#N)nc(-c2ccccc2)n1 [Compound 4]
16 | A (EC1.5≦1 uM) | ≥ 300 | CCN(CCN(C)C)c1cc(C(=O)Nc2ccccc2-c2nnc(NS(C)(=O)=O)s2)nc(-c2ccccc2)n1 [Compound 98]
17 | A (EC1.5≦1 uM) | 150 to 300 | O=C1CN(c2cc(C(=O)Nc3ccccc3-c3nnc(N4CCN5CCC[C@H]5C4)s3)nc(-c3ccccc3)n2)CCN1 [Compound 118]
18 | A (EC1.5≦1 uM) | ≥ 300 | CN(C)CCNc1cc(C(=O)Nc2ccccc2-c2nnc(N3CCOCC3)s2)nc(-c2ccccc2)n1 [Compound 101]
19 | C (EC1.5>10 uM) | < 150 | CCOC(=O)c1nnc(-c2ccccc2NC(=O)c2cc(N(C)CCN(C)C)nc(-c3ccccc3)n2)s1 [Compound 57]
20 | A (EC1.5≦1 uM) | 150 to 300 | CN(C)CCNc1cc(C(=O)Nc2ccccc2C(=O)Nc2ccc(C(N)=O)cc2)nc(-c2ccccc2)n1 [Compound 157, N-(2-(4-carbamoylphenylcarbamoyl)phenyl)-6-(2-(dimethylamino)ethylamino)-2-phenylpyrimidine-4-carboxamide]
21 | A (EC1.5≦1 uM) | ≥ 300 | CCN(CCN(C)C)c1cc(C(=O)Nc2ccccc2C(=O)NC2CCNC2)nc(-c2ccccc2)n1 (centres unmarked) [Compound 175, 6-((2-(dimethylamino)ethyl)(ethyl)amino)-2-phenyl-N-(2-(pyrrolidin-3-ylcarbamoyl)phenyl)pyrimidine-4-carboxamide]
22 | A (EC1.5≦1 uM) | 150 to 300 | CC(C)Cc1nnc(-c2ccccc2NC(=O)c2cc(NCCN(C)C)nc(-c3ccccc3)n2)s1 [Compound 60]
23 | B (EC1.5>1 and ≦10 uM) | ≥ 300 | CCN(CC)CCNc1cc(C(=O)Nc2ccccc2C(C)=O)nc(-c2ccccc2)n1 [Compound 135]
24 | A (EC1.5≦1 uM) | 150 to 300 | CCc1nnc(-c2ccccc2NC(=O)c2cc(N(C)CCNC)nc(-c3ccccc3)n2)s1 [Compound 52]
25 | A (EC1.5≦1 uM) | ≥ 300 | CCN(CCN(C)C)c1cc(C(=O)Nc2ccccc2C(=O)NC2CCNCC2)nc(-c2ccccc2)n1 [Compound 167, 6-((2-(dimethylamino)ethyl)(ethyl)amino)-2-phenyl-N-(2-(piperidin-4-ylcarbamoyl)phenyl)pyrimidine-4-carboxamide]
26 | A (EC1.5≦1 uM) | ≥ 300 | CN(C)CCNc1cc(C(=O)Nc2ccccc2C(=O)Nc2cccc(Cl)c2)nc(-c2ccccc2)n1 [Compound 145, N-(2-(3-chlorophenylcarbamoyl)phenyl)-6-(2-(dimethylamino)ethylamino)-2-phenylpyrimidine-4-carboxamide]
27 | A (EC1.5≦1 uM) | ≥ 300 | CN(C)CCNc1cc(C(=O)Nc2ccccc2C(=O)Nc2cccc(C(N)=O)c2)nc(-c2ccccc2)n1 [Compound 147, N-(2-(3-carbamoylphenylcarbamoyl)phenyl)-6-(2-(dimethylamino)ethylamino)-2-phenylpyrimidine-4-carboxamide]
28 | A (EC1.5≦1 uM) | ≥ 300 | CCN(CCN(C)C)c1cc(C(=O)Nc2ccccc2-c2nnc(-c3cccnc3)s2)nc(-c2ccccc2)n1 [Compound 81]
29 | B (EC1.5>1 and ≦10 uM) | 150 to 300 | C/C(=N\O)c1ccccc1NC(=O)c1cc(NCCN(C)C)nc(-c2ccccc2)n1 [Compound 132]
30 | A (EC1.5≦1 uM) | ≥ 300 | COCCN(CCOC)c1cc(C(=O)Nc2ccccc2-c2nnc(C(=O)N3CCOCC3)s2)nc(-c2ccccc2)n1 [Compound 92]
31 | B (EC1.5>1 and ≦10 uM) | ≥ 300 | Cc1cnc(-c2ccccc2NC(=O)c2cc(NCCN(C)C)nc(-c3ccccc3)n2)s1 [Compound 22]
